Values belong to the compound of their own block, whether it stands above or below them.
Assays:
[1] = Free radical scavenger, SOD mimetic activity (xanthine/xanthine oxidase/NBT); assay type: biochemical; conditions: reference agents; read-out: Concentration at 50 % Inhibition
Experimental: Conversion of xanthine to uric acid+O^−+NBT to formazan was then determined by measurement of absorbance at 595 nm and percent inhibition by superoxide dismutase or test compound was calculated.

chondrocyte = conditions: Okazaki M, Osteoarthritis Cartilage 2003; cited from earlier work
TIMP = TIMP activities of chondrocyte culture supernatants by reverse zymography; assay type: cell-based, human; conditions: non-sheared
Experimental: Confluent cells were treated with various herbal combinations in F12/DMEM containing 5% FCS, 6.25 ug/ml bovine insulin, 25 ug/ml ascorbic acid and 100 nM Dexamethasone for 2 weeks with medium changed twice a week. At the end of each treatment, cells were washed with PBS and incubated in DMEM overnight. Cells were then exposed to fluid-induced shear stress by a custom-made cone viscometer at the rate of 100 rpm for 2 hours. The shear stress induced at this speed was 0.82 Pa (8.2 dyn/cm^2). […] Another set of cells was treated similarly without shearing as the control.
Equal amount of protein of each culture medium was mixed with equal volume of 2× non-reducing SDS sample buffer, and incubated at room temperature for two hours for sample to denature. The samples were loaded into each well of a 10% SDS polyacrylamide gel containing 1 mg/ml of bovine gelatin (Sigma) and 1 ml serum free 24 hour's culture supernatant of human foreskin dermal fibroblast which expressed MMP, and run at 20 mA in ice bath by a BioRad Mini Protean gel apparatus. After dye front reached the bottom of the gel, the gel was washed three times, 15 minutes each, with 2.5% Triton X-100. Then, the gel was renatured in developing buffer (50 mM Tris-HCl, pH7.6, 10 mM CaCl2, 50 mM NaCl, 0.05% Brij35) at 37° C. for 48 hours. […]

chondrocytes [2] = assay: Micromass culture of chondrocytes, herbal preparations in combination with glucosamine; assay type: cell-based, human
Experimental: Expression was measured on micromass culture after cells grown for two weeks. Induction medium alone (left); with 0.1 mM glucosamine (middle); with 1 mM glucosamine (right). […] All the preparations were at 0.01 mg/ml. Row A, B: alkaline phosphatase (ALP) stained by Naphthol AS-MX phosphate/Fast red; row C, D: collagen stained by Sirius red; row E, F: glycosaminoglycans stained by Safranin O.
(§1) Human articular cartilage was obtained from patients who received total joint replacement with consent. The cartilage was digested with 1 mg/ml of Class 2 and Class 4 bacterial collagenase (Worthington Chemical, Freehold, N.J.) in DMEM containing 10% fetal calf serum (FCS) and 25 ug/ml Gentamicin (Gibco, Grand Island, N.Y.) (C-DMEM) at 37° C. overnight. The primary cells were plated at high density in 10 mm culture dish (Nunc, Roskilde, Danmark) in C-DMEM and cultured under humidified atmosphere containing 5% CO2 at 37° C.
(§2) Ten ul of 1×10^7 cells in C-DMEM was seeded into the center of each well of 48 multiwell culture dish (Nunc, Roskilde, Danmark). Two hours later, 250 ul of F12/DMEM containing 5% FCS, 6.25 ug/ml bovine insulin, 25 ug/ml ascorbic acid and 100 nM Dexamethasone (induction medium) with various concentrations of herbal combinations or glucosamine (Sigma) was added. The media were changed twice a week for two weeks. At the end of the incubation, the media were changed with fresh DMEM. Twenty-four hours later, the media were collected for MMP zymography study and cells were fixed and stained for alkaline phosphatase (ALP), collagen or glycosaminoglycan using Naphthol AS-MX phosphate/Fast red, Sirius red, or Safranin O (Sigma), respectively.

chondrocytes [3] = assay: Micromass culture of chondrocytes, staining for ALP, collagen and GAGs; assay type: cell-based, human; conditions: 1 mM, two weeks
Experimental: Cells were grown for two weeks before measuring. […] Row A, B: alkaline phosphatase (ALP) stained by Naphthol AS-MX phosphate/Fast red; row C, D: collagen stained by Sirius red; row E, F: glycosaminoglycan stained by Safranin O.
as §1, §2

chondrocytes [4] = assay: Gene expressions (RT-PCR) of shear-stressed vs. non-shear-stressed chondrocytes; assay type: cell-based, human; conditions: for Col I expression: glucosamine 1 mM
Experimental: Confluent cells were treated with various herbal combinations in F12/DMEM containing 5% FCS, 6.25 ug/ml bovine insulin, 25 ug/ml ascorbic acid and 100 nM Dexamethasone for 2 weeks with medium changed twice a week. At the end of each treatment, cells were washed with PBS and incubated in DMEM overnight. Cells were then exposed to fluid-induced shear stress by a custom-made cone viscometer at the rate of 100 rpm for 2 hours. The shear stress induced at this speed was 0.82 Pa (8.2 dyn/cm^2). […] Another set of cells was treated similarly without shearing as the control. The cells were washed with PBS, and RNA was extracted by Tri-Reagent (Sigma).
The RNA of cells was extracted with Tri-Reagent (Sigma). 800 ng of total RNA was reverse transcribed by Omniscript reverse transcriptase (Qiagen, Valencia, Calif.) in buffer containing 1 uM random primer, 0.5 mM each of dNTP, and 10 units of ribonuclease inhibitor. Reverse transcription was carried out at 37° C. for one hour by a programmable thermal controller (PTC-100, MJ Research, Inc., Watertown, Mass.). Reaction was terminated by raising the temperature to 93° C. for five minutes.
PCR was performed in a thermal controller (PTC-100, MJ Research, Inc., Watertown, Mass.) with master mix (HotStarTaq DNA polymerase, Qiagen) at initial denaturation at 95° C. for 15 minutes, followed by 25 cycles of 94° C. for 1 minute, 58° C. for 40 seconds, and 72° C. for 40 seconds. The final cycle extended 72° C. for 10 minutes. The PCR products accompanied by 100 bp ET marker were separated by 1.2% agarose gel, stained with ethidium bromide and visualized under UV light. A Polaroid picture was taken by Foto/Phoresis UV documentation system (Fotodyne Inc.). Beta-actin expression under the same experimental conditions was used as a reference to normalize the expressions.

chondrocytes [5] = assay: Nitric oxide determination (Griess) after fluid induced shear stress; assay type: cell-based, human; conditions: for NO Concentration: pretreated two weeks, 0.01 mg/ml or glucosamine 1 mM
[6] = tested on: bone marrow mesenchymal stem cells; assay: Micromass culture of bone marrow mesenchymal stem cells, staining for ALP, collagen and GAGs; assay type: cell-based, human; conditions: 1 mM
Experimental: Herbal preparations were treated to cells grown in the induction medium in micromass culture for two weeks.
Human bone marrow mesenchymal stem cells were obtained from patients receiving total joint replacement with consent. The cells were cultured in DMEM containing 10% fetal calf serum (FCS), and 25 ug/ml Gentamicin (Gibco, Grand Island, N.Y.) (C-DMEM) at 37° C. under humidified atmosphere containing 5% CO2.
as §2

MMP-2 = MMP-2 activities of chondrocyte culture supernatants by zymography; assay type: cell-based, human
Experimental: Confluent cells were treated with various herbal combinations in F12/DMEM containing 5% FCS, 6.25 ug/ml bovine insulin, 25 ug/ml ascorbic acid and 100 nM Dexamethasone for 2 weeks with medium changed twice a week. At the end of each treatment, cells were washed with PBS and incubated in DMEM overnight. Cells were then exposed to fluid-induced shear stress by a custom-made cone viscometer at the rate of 100 rpm for 2 hours. The shear stress induced at this speed was 0.82 Pa (8.2 dyn/cm^2). Aliquots of culture medium were collected at designated time for nitric oxide measurement and MMP zymography analysis. Another set of cells was treated similarly without shearing as the control.
Equal amount of protein of each culture medium was mixed with equal volume of 2× non-reducing SDS sample buffer, and incubated at room temperature for two hours for sample to denature. The samples were loaded into each well of a 10% SDS polyacrylamide gel containing 1 mg/ml of bovine gelatin (Sigma), and run at 20 mA in ice bath by a BioRad Mini Protean gel apparatus. After dye front reached the bottom of the gel, the gel was washed three times, 15 minutes each, with 2.5% Triton X-100. Then, the gel was renatured in developing buffer (50 mM Tris-HCl, pH7.6, 10 mM CaCl2, 50 mM NaCl, 0.05% Brij35) at 37° C. for 48 hours. […]

[7] = biological target: T1, MMP-8 (collagenase-2, stimulated human neutrophils) (Homo sapiens, UniProt P22894); assay: MMP-8 enzymatic assay; assay type: biochemical; conditions: reference agents; read-out: Concentration at 50 % Inhibition
T1 construct: purchased Calbiochem 444229; host or cells: natural protein from stimulated human neutrophils
Experimental: MMP-8 (collagenase-2, stimulated human neutrophils, Calbiochem Cat. 444229) was activated by p-aminophenylmercuric acetate for 60 minutes at 37° C. […] Enzyme activity was determined spectrofluorometrically by measuring the formation of fluorescent (7-methoxycoumarin-4-yl) acetyl-Pro-Leu-Gly.

[8] = biological target: T2, MMP-13 proenzyme (human recombinant) (Homo sapiens, UniProt P45452); assay: MMP-13 enzymatic assay; assay type: biochemical; conditions: reference agents; read-out: Concentration at 50 % Inhibition
T2 construct: purchased Calbiochem 444248; host or cells: Sf9 cell
Experimental: MMP-13 proenzyme (human recombinant, expressed in Sf9 cell, Calbiochem Cat. 444248) was activated by p-aminophenylmercuric acetate for 60 minutes at 37° C. […] Enzyme activity was determined spectrofluorometrically by measuring the formation of fluorescent (7-methoxycoumarin-4-yl)acetyl-Pro-Leu-Gly.

[9] = biological target: T3, MMP-3 (stromelysin-1, human recombinant catalytic domain) (Homo sapiens, UniProt P08254); assay: MMP-3 enzymatic assay; assay type: biochemical; conditions: reference agents; read-out: Concentration at 50 % Inhibition
T3 construct: MMP-3 (stromelysin-1, human recombinant catalytic domain from Calbiochem Cat. 444217); purchased Calbiochem 444217
Experimental: MMP-3 (stromelysin-1, human recombinant catalytic domain from Calbiochem Cat. 444217) was activated by p-aminophenylmercuric acetate for 60 minutes at 37° C. […] Enzyme activity was determined spectrofluorometrically by measuring the formation of fluorescent (7-methoxycoumarin-4-yl)acetyl-Pro-Leu-Gly.

T3 sequence (P08254 100-272 limits assumed): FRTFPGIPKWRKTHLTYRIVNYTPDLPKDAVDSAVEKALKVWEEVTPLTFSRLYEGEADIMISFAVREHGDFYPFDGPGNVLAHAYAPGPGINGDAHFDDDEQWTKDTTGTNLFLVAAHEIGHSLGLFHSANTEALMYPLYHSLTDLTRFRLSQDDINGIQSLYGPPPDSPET
T1 sequence (P22894 101-467): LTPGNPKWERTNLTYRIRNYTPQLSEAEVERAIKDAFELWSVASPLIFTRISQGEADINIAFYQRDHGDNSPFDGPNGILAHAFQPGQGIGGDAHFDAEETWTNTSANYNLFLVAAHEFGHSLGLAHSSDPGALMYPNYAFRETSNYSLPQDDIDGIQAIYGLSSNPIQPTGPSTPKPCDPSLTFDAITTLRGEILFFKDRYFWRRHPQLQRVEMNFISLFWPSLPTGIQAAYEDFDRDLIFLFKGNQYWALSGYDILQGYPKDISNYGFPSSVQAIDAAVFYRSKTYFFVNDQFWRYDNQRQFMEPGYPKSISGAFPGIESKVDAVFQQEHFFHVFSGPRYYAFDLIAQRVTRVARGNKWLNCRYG

Compound: O=C(O[C@@H]1Cc2c(O)cc(O)cc2O[C@@H]1c1ccc(O)c(O)c1)c1cc(O)c(O)c(O)c1 [(−)-Epicatechin gallate]
IC50 [1]: 6100 nM

Compound: CCOC(CN1C(=O)[C@](CC(=O)Nc2ccc(C)cc2)(NC(=O)Nc2ccc(C)cc2)c2ccccc21)OCC [AG-041R]
ALP activity (chondrocyte): suppressed ALP activity | expression of type II collagen, aggrecan and BMP-2 genes (chondrocyte): up-regulated | proteoglycan synthesis (chondrocyte): accelerated proteoglycan synthesis

aggrecanase expression (chondrocytes [4]; non-shear-stressed): inhibited aggrecanase expression
Compound: N[C@H]1C(O)O[C@H](CO)[C@@H](O)[C@@H]1O (some centres unmarked) [glucosamine]
TIMP (41 K band, >118 K band) (TIMP): decrease of TIMP | baseline GAG synthesis (chondrocytes [2]; 0.1 mM glucosamine): slightly increased | baseline collagen synthesis (chondrocytes [2]; 0.1 mM glucosamine): slightly increased | effect of glucosamine on the activity of herbal preparations (chondrocytes [2]; glucosamine 0.1 or 1 mM, preparations 0.01 mg/ml): did not affect the activity of herbal preparations | ALP (chondrocytes [3]; Naphthol AS-MX phosphate/Fast red): did not show effects | GAGs (chondrocytes [3]; Safranin O): did not show effects | Collagen (chondrocytes [3]; Sirius red): did not show effects | expression of aggrecan (chondrocytes [4]; non-shear-stressed): inhibited the expression of aggrecan significantly | BMP-2 expression (chondrocytes [4]; non-sheared): inhibited its expression completely | Col I expression (chondrocytes [4]; non-sheared): inhibited Col I expression significantly | BMP-2 expression (chondrocytes [4]; shear-stressed): showed less activity | aggrecanase expression (chondrocytes [4]; shear-stressed): slight increase in aggrecanase expression | expression of aggrecan (chondrocytes [4]; shear-stressed): slightly increased aggrecan expression | MMP-2 expression (chondrocytes [4]; shear-stressed and non-shear-stressed): not to be affected | Col I expression (chondrocytes [4]; sheared): no effect | NO Concentration (chondrocytes [5]; Non-sheared, 0 h): 0.40 µM | NO Concentration (chondrocytes [5]; Non-sheared, 2 h): 0.00 µM | NO Concentration (chondrocytes [5]; Non-sheared, 4 h): 0.00 µM | NO Concentration (chondrocytes [5]; Non-sheared, 7 h): 0.00 µM | NO Concentration (chondrocytes [5]; Non-sheared, 24 h): 0.00 µM | NO Concentration (chondrocytes [5]; Non-sheared, (2 h)): 0.17 µM | NO Concentration (chondrocytes [5]; Sheared, 0 h): 4.58 µM | NO Concentration (chondrocytes [5]; Sheared, 2 h): 4.75 µM | NO Concentration (chondrocytes [5]; Sheared, 4 h): 4.58 µM | NO Concentration (chondrocytes [5]; Sheared, 7 h): 4.42 µM | NO Concentration (chondrocytes [5]; Sheared, 24 h): 4.72 µM | NO Concentration (chondrocytes [5]; Sheared, (2 h)): 0.85 µM | inhibition of NO production (chondrocytes [5]; fluid induced shear stress 100 rpm (0.82 Pa), two hours): 55% | ALP [6]: did not show significant effects | GAGs synthesis [6]: did not show significant effects | collagen synthesis [6]: did not show significant effects | active and latent forms of MMP-2 (68 K, 72 K bands) (MMP-2; non-sheared): showed same profiles as controls | active and latent forms of MMP-2 (68 K, 72 K bands) (MMP-2; sheared): showed same profiles as controls

IC50 [7]: 3.9 nM | IC50 [8]: 6.8 nM | IC50 [9]: 7.6 nM
Compound: TIMP-1: tissue inhibitor of matrix metalloproteinase, comparison agent in the MMP assays
